The target in series [1] is Leishmania donovani (Ld) N-myristoyl transferase (Leishmania donovani, UniProt D0AB09). As to the kind of experiment: Fluorescence-based NMT assay (a), adapted version, LdNMT. It is filed as biochemical.
Series [2] has as its target T1, Leishmania major (Lm) N-myristoyl transferase (Leishmania major, UniProt Q4Q5S8).
T1 sequence (Q4Q5S8 1-421): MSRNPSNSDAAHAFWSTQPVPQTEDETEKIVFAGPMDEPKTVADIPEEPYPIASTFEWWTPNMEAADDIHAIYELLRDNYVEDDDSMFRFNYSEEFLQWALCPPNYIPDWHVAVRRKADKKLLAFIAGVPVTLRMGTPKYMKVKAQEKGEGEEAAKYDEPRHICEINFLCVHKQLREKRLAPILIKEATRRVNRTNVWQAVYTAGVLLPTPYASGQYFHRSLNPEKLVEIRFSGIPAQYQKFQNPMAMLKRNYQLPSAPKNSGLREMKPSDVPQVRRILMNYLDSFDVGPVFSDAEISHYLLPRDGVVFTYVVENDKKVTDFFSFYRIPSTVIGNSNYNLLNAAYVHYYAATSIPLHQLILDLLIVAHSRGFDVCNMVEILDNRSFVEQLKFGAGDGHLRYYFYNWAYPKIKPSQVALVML
As to the kind of experiment: Fluorescence-based NMT assay (a), adapted version, LmNMT. Format: biochemical.

In series [3] the test system is HRV16. As to the kind of experiment: Rhinovirus production assay 2 (f), virus-induced cytopathic effect. Format: cell-based, human HeLa Ohio cell line. The note with it: 2 days post-infection, HeLa Ohio cells. How it is done:
Examples 30, 35, 49 and 50 of the invention was tested for activity in a rhinovirus replication assay in the human HeLa Ohio cell line. Compounds having activity in inhibiting rhinovirus production in the assay are expected to be useful as agents for preventing and/or treating asthma or chronic obstructive pulmonary disease (COPD), by virtue of being inhibitors of human NMT1 and/or NMT2, which are thought to myristoylate rhinovirus capsid subunit VP4 and be essential for virus assembly. HeLa Ohio cells were grown in growth media (DMEM supplemented with 10% FBS, 1% Sodium Bicarbonate and 25 mM Hepes) and seeded 24 hours prior to infection in a 96-well plate at a cell density allowing to obtain 100% confluent cells (5.6×10^4 cells per well) the next day. Confluent cells were infected with HRV16 at an MOI of 0.05 in the presence of different concentrations of inhibitor, as indicated in the table below, each in duplicate. The virus stock (5.6×10^6 PFU/ml) was diluted in growth media to obtain a virus solution at 1.4×10^4 PFU/ml. This virus dilution was used to dilute the inhibitor by serial dilutions in order to obtain virus solutions with the inhibitor concentrations indicated in the table below. The DMSO control contained the same percentage of DMSO as in the solution with the highest concentration of inhibitor.

The subject of series [4] is HeLa Ohio cells. As to the kind of experiment: Cell viability of inhibitor-treated uninfected cells (assay (f)). The note with it: MTS 2 days post-treatment.
The subject of series [5] is HRV16. Description: Rhinovirus production assay (e), virus titre (TCID50). Format: cell-based, human HeLa Ohio cell line. The note with it: Enterovirus. How it is done:
Example 30 of the invention was tested for activity in an in vitro rhinovirus production assay using the human HeLa Ohio cell line. Compounds having activity in inhibiting rhinovirus production in the assay are expected to be useful as agents for preventing and/or treating asthma or chronic obstructive pulmonary disease (COPD), by virtue of being inhibitors of human NMT1 and/or NMT2, which are thought to myristoylate rhinovirus capsid subunit VP4 and be essential for virus assembly. Hela Ohio cells were grown in growth media (DMEM supplemented with 10% FBS, 1% Sodium Bicarbonate and 25 mM Hepes) and seeded 24 h prior to infection in a 12-well plate at a cell density allowing to obtain 100% confluent cells (5.95×10^5 cells per well) the next day. Confluent cells were treated with different concentrations of inhibitor, as indicated in the table below, each in triplicate. The Example 30 inhibitor solution was prepared by serial dilutions in growth media and the DMSO control contained the same percentage of DMSO as in the solution with the highest concentration of inhibitor. […] Cells were then infected with HRV16 at an MOI of 1 in the presence of the inhibitor. The virus stock (2.492×10^7 PFU/ml) was diluted in growth media to obtain a virus solution at 5.95×10^5 PFU/ml. This virus dilution was used to dilute the inhibitor as previously described in order to obtain virus solutions with the inhibitor concentrations indicated in the table below. The cell media was as replaced by 1 ml per well of virus+inhibitor solution and the plate was incubated for 1 h at room temperature to allow virus adsorption onto the cells. The cells were then washed with PBS and the media was replaced with 1 ml per well of growth media+inhibitor, prepared as previously described. […] The media and cells form each well were then transferred to 1.5 ml tubes and centrifuged for 1 min at 16000×g to remove cell debris. The virus titres from the cleared supernatants were determined by measuring the 50% Tissue Culture Infective Dose (TCID50). Each sample was diluted in a series of 10-fold dilutions in TCID50 media (DMEM supplemented with 2% FBS, 1% Sodium Bicarbonate, 25 mM Hepes and 1% Penicillin-Streptomycin) and 50 μl of each of the dilutions 1/10 to 1/10^−8 were added onto a 96-well plate, in 6 replicates. HeLa Ohio cells at a cell density of 1×10^5 cells/ml in TCID50 media were then added to each well (150 μl per well). Some wells with cells alone (without sample) were included as control. […] The appearance of characteristic cytopathic effect, compared to control cells, was then assessed by observation of the plates on an inverted microscope and the virus titres were subsequently calculated by the method of Reed and Muench.

For series [6], the system named is HeLa and/or BL-41 cells. As to the kind of experiment: Metabolic activity assay (MTS assay) (d), HeLa and/or BL-41. It is filed as cell-based. The note with it: Homo sapiens, 72 h. How it is done: Example NMT inhibitors of the invention were tested for activity in an in vitro metabolic activity assay using human cell lines (HeLa and BL-41). Compounds having activity in inhibiting metabolic activity in the assay are expected to be useful as agents for preventing and/or treating cancer, by virtue of being inhibitors of human NMT1 and/or NMT2.
Hela cells were grown in DMEM media (supplemented with 10% FBS) and seeded in a 96-well plate 24 h prior to treatment. BL-41 cells were grown in RPMI-1640 media (supplemented with 10% FBS) and seeded directly before treatment. Cell suspensions were prepared by adjusting the cell density to the appropriate concentration (as stated in the table below) and 50 μL of the cell suspension was transferred to wells B-G in columns 2-11 of a 96-well plate.
100 μL of growth media containing 0.2% DMSO was added to wells B-G in columns 2 and 11 as positive controls and 100 μL of growth media containing Puromycin (3 μg/mL; final concentration in the plate 2 μg/mL) was added to wells B-G in column 3 as a negative control. 7 concentrations of inhibitor solution were prepared using example NMT inhibitors (same final percentage of DMSO, dilution factor=3 starting from 15 μM or 150 μM) and 100 μL of inhibitor solution was added to wells B-G in columns 4-10 (final concentration of example NMT inhibitor in the plate starting from 10 μM or 100 μM; total volume of the wells=150 μL).
After 72 h, 20 μL MTS reagent (Promega, prepared according to the supplier protocol) was added to each well of the 96-well plate. The plate was incubated at 37° C. (2 hours for HeLa cells and 4 hours for BL-41 cells) and absorbance was measured at 490 nm with a Spectra Max M2/M2e microplate reader. The average absorbance value of the negative control (Puromycin-treated cells) was subtracted from each value and the metabolic activity was calculated as a percentage relative to the positive control (DMSO-treated cells). EC50s were calculated using Grafit 7.0 (Erithacus Software Ltd, UK).

Experimental findings from patent US11466011B2, “Compounds and their use as inhibitors of N-myristoyl transferase” (Imperial College Innovations Limited, priority 2015, dated 2022) are described below.

pEC50, pIC50: −log10 of the molar value. Counter-ions that a name gives are not always drawn.

Leishmania donovani (Ld) N-myristoyl transferase, sequence (D0AB09 entry or part of it): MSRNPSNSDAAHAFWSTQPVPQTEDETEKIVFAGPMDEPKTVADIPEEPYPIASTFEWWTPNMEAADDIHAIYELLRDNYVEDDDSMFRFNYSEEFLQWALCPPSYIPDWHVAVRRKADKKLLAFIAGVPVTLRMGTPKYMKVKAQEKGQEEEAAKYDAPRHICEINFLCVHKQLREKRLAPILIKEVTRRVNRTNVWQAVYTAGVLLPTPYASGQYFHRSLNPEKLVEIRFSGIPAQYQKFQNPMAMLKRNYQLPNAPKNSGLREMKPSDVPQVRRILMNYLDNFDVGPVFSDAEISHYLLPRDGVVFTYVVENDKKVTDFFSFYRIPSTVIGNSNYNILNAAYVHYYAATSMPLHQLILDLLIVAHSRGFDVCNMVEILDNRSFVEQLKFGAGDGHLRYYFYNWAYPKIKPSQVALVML

`Cc1nn(C)c(C)c1CCOc1cc(F)ccc1-c1ccc2c(c1)c(CN)nn2C` (as salt: salt) [Example 31, (5-(4-fluoro-2-(2-(1,3,5-trimethyl-1H-pyrazol-4-yl)ethoxy)phenyl)-1-methyl-1H-indazol-3-yl)methanamine]: the melting point was in the range of 230 to 233 °C.
`Cc1nn(C)c(C)c1CCOc1cc(F)ccc1-c1ccc2[nH]nc(CN(C)C)c2c1` [Example 7]: the pIC50 in series [1] was 7.00 to 9.00.
As to `CN(C)Cc1n[nH]c2ccc(-c3ccc(F)cc3OCCc3cccnc3)cc12` [Example 8], the pIC50 in series [2] and in series [1] was 7.00 to 9.00 each time.
Take `Cc1nn(C)c(C)c1CCOc1c(F)cccc1-c1ccc2c(c1)c(CN(C)C)nn2C` [Example 30]: the “HRV16 production (virus-induced cytopathic effect, MTS)” value (“HRV16 production” below) in series [3] is given as “inhibit HRV16 production in a dose-dependent manner”. The “cell viability of inhibitor-treated but uninfected cells” value in series [4] was “without affecting cell viability”. Also, the negative logarithm of the EC50 (pEC50) is 7.00 to 8.00 in series [5] and 7.00 to 9.00 in series [6].
Consider `CNCc1nn(C)c2ccc(-c3cccc(F)c3OCCc3c(C)nn(C)c3C)cc12` [Example 35, 1-(5-(3-fluoro-2-(2-(1,3,5-trimethyl-1H-pyrazol-4-yl)ethoxy)phenyl)-1-methyl-1H-indazol-3-yl)-N-methylmethanamine], for which the “HRV16 production” value in series [3] was “inhibit HRV16 production in a dose-dependent manner”. In addition, the “cell viability of inhibitor-treated but uninfected cells” value in series [4] was “without affecting cell viability”. Moreover, the pEC50 in series [5] is 7.00 to 8.00.
As to `Cc1nn(C)c(C)c1CCOc1c(-c2ccc3c(c2)c(CN(C)C)nn3C)ccc(F)c1F` [Example 49], the “HRV16 production” value in series [3] is “inhibit HRV16 production in a dose-dependent manner”. For the same molecule, the “cell viability of inhibitor-treated but uninfected cells” value in series [4] was “without affecting cell viability”. Besides, the pEC50 in series [5] is 7.00 to 8.00; in series [6], 7.00 to 9.00.
Regarding `CNCc1nn(C)c2ccc(-c3ccc(F)c(F)c3OCCc3c(C)nn(C)c3C)cc12` [Example 50, 1-(5-(3,4-difluoro-2-(2-(1,3,5-trimethyl-1H-pyrazol-4-yl)ethoxy)phenyl)-1-methyl-1H-indazol-3-yl)-N-methylmethanamine], the “HRV16 production” value in series [3] is given as “inhibit HRV16 production in a dose-dependent manner”. In addition, the “cell viability of inhibitor-treated but uninfected cells” value in series [4] is recorded as “without affecting cell viability”. Further, the pEC50 was 7.00 to 8.00 in series [5] and 7.00 to 9.00 in series [6].

A word on the melting point: it is the temperature of the solid-liquid transition. A word on the pIC50: it is −log10 of the IC50, conventionally taken in molar units. The low end stands for a high IC50, the high end for a low IC50. A word on the pEC50: it is the negative decadic logarithm of the EC50, by convention in mol/L. A lower pEC50 goes with a large EC50.
